Measured values: paper PMC4026384, “Antibacterial Activity of THAM Trisphenylguanide against Methicillin-Resistant Staphylococcus aureus” (PLoS ONE, 2014)
In brackets after ≈: the same amount, converted by molar mass. Entries after “also recorded” stand apart in the source; their conditions may differ. Read-outs that look alike come from different tables or passages of the source.

Legend:
S. aureus RN4220 = test: Bacterial viability assay; assay type: cell-based, Staphylococcus aureus; conditions: Staphylococcus aureus, 1 h, one hour in PBS, CFU, ± SEM
Method: (§1) Supplementary file pone.0097742.s003.doc: Table S1 Bacterial viability assays. Bacteria were grown at 37°C to mid-log phase (OD600 ∼0.4). The bacteria were diluted to approximately 10^4 to 10^5 colony forming units (CFU) per milliliter and added to a solution of phosphate buffered saline (PBS, 16 mM phosphate, 0.14 M NaCl, pH 7.2) containing the compound at varied concentrations. Samples were incubated at 37°C for one hour and then plated on Luria Bertani (LB) agar at appropriate dilutions in PBS. The plates were incubated overnight at 37°C and colonies enumerated the following day. IC50s were calculated from graphs of CFU as a function of compound concentration. Chlorhexidine was used as a positive control. Included are those guanide (G), biguanide (BG), phenylguanide (ΦG) compounds that had some antibacterial activity in an initial screen at 30 and 100 µM, as well as their and parent amines. Compounds synthesized from 1,4-butanediamine, 1,6-hexanediamine, trisethylaminomelamine, trisbutylaminomelamine, and the dendrimer PAMAM (G0) were not active against E. coli, P aeruginosa, or S. aureus so they were not tested against the remaining bacteria (data not shown). (DOC) Click here for additional data file.
as §1, with “Bacterial” for “Supplementary file pone.0097742.s003.doc: Table S1 Bacterial”, “~0.4).” for “∼0.4).”, “μM,” for “µM,”, “shown).” for “shown). (DOC) Click here for additional data file.”

[1] = tested on: Escherichia coli (strain K91); test: Minimum bactericidal concentration; assay type: cell-based; conditions: E. coli K91; MHB; median; 3-log reduction of viable bacteria
Method: (§2) Minimum inhibitory concentration (MIC) values were determined for those compounds showing the most antibacterial activity in the bacterial viability assays (see Supplemental Materials) against each of the strains of bacteria using a microdilution method in 96 well plates with LB media according to guidelines published by the British Society for Antimicrobial Chemotherapy. Minimum bactericidal concentrations (MBC) were determined by plating 10 µL and 100 µL from each well showing no signs of growth after overnight incubation of the MIC plates and determining the minimum concentration showing a 3-log reduction of viable bacteria. MIC and MBC were also determined in cation-adjusted Mueller-Hinton broth (Hardy Diagnostics, Santa Maria, CA) for some compounds and strains.

[2] = tested on: Staphylococcus aureus RN4220; test: Minimum bactericidal concentration; assay type: cell-based; conditions: S. aureus RN4220; MHB; median; 3-log reduction of viable bacteria
Method: as §2

[3] = tested on: Acinetobacter baumannii ATCC 19606; test: Minimum inhibitory concentration (microdilution); assay type: cell-based; conditions: Acinetobacter baumannii, ATCC19606; A. baumannii ATCC 19606; LB media; median of at least 3 determinations; read-out: MIC
Method: as §2

[4] = tested on: Pseudomonas aeruginosa (strain PA01); test: Minimum inhibitory concentration (microdilution); assay type: cell-based; conditions: Pseudomonas aeruginosa; P. aeruginosa PA01; LB media; median of at least 3 determinations; read-out: MIC
Method: as §2

[5] = tested on: Escherichia coli (strain K91); test: Minimum inhibitory concentration (microdilution); assay type: cell-based; conditions: E. coli K91
Method: as §2

[6] = tested on: Acinetobacter baumannii ATCC BAA1605; test: Minimum inhibitory concentration (microdilution); assay type: cell-based; conditions: ATCCBAA1605, A. baumannii ATCC BAA1605, LB media, median of at least 3 determinations
Method: as §2

[7] = tested on: Enterococcus faecalis ATCC V583; test: Minimum inhibitory concentration (microdilution); assay type: cell-based; conditions: Enterococcus faecalis, ATCCV583; E. faecalis V583; LB media; median of at least 3 determinations; read-out: MIC
Method: as §2

[8] = tested on: Enterococcus faecalis MSU#10; test: Minimum inhibitory concentration (microdilution); assay type: cell-based; conditions: Enterococcus faecalis; E. faecalis MSU#10; LB media; median of at least 3 determinations; read-out: MIC
Method: as §2

[9] = tested on: Staphylococcus aureus RN4220; test: Minimum inhibitory concentration (microdilution); assay type: cell-based; conditions: S. aureus RN4220
Method: as §2

MRSA strain LAC, USA300 = test: Minimum inhibitory concentration (microdilution); assay type: cell-based, Staphylococcus aureus
Method: as §2

MRSA = test: Cytoplasmic leakage & bacteriolysis assay; assay type: cell-based, Staphylococcus aureus; conditions: for change in A260 of culture supernatant (cytoplasmic leakage): 4×MIC (8 mg/L), within the first 30 minutes, versus untreated controls; for number of viable cells (CFUs) during the leakage assay: over the 3 hour period
Method: Bacteria were cultured to mid-log phase (OD600 ∼0.4) in LB media with shaking. Bacteria were then harvested and resuspended in PBS to a concentration of ∼10^8 CFU/mL. […] Bacteria were monitored over time for cytoplasmic leakage via A260 measurements and for cell viability. For A260 readings, sample aliquots were centrifuged for 5 min at 10,000×g at room temperature to remove cellular debris. Viability was monitored by determining the CFU/mL during the first 3 hours post treatment as described above for the kill curve assays.

[10] = Escherichia coli, LB media, median of at least 3 determinations, read-out: MIC
[11] = Staphylococcus aureus, LB media, median of at least 3 determinations, read-out: MIC
[12] = Staphylococcus aureus, MRSA USA300, LB media, median of at least 3 determinations, read-out: MIC

## N=C(NCCCCCCNc1nc(NCCCCCCNC(=N)Nc2ccccc2)nc(NCCCCCCNC(=N)Nc2ccccc2)n1)Nc1ccccc1 [THAM-3ΦG, Trishexylaminomelamine trisphenylguanide]
S. aureus RN4220
  IC50: 1700 ± 900 nM
[1]
  MBC: 16 µg/mL (≈ 20.6 µM)
[2]
  MBC: 2 µg/mL (≈ 2.57 µM)
[3]
  MIC: > 256 µg/mL
[4]
  MIC: 48 µg/mL (≈ 61.7 µM)
[5]; MHB, median
  MIC: 8 µg/mL (≈ 10.3 µM)
[5]; [10]
  MIC: 8 µg/mL (≈ 10.3 µM)
[6]
  MIC: > 256 µg/mL
[7]
  MIC: 256 µg/mL (≈ 329 µM)
[8]
  MIC: 32 µg/mL (≈ 41.1 µM)
[9]; MHB, median
  MIC: 1 µg/mL (≈ 1.29 µM)
[9]; [11]
  MIC: 2 µg/mL (≈ 2.57 µM)
MRSA strain LAC, USA300; MRSA USA300, MHB, median
  MIC: 1 µg/mL (≈ 1.29 µM)
MRSA strain LAC, USA300; [12]
  MIC: 2 µg/mL (≈ 2.57 µM)
MRSA strain LAC, USA300; Staphylococcus aureus, against MRSA, as stated in the abstract, read-out: MIC
  MIC: ~1 µg/mL (≈ 1.29 µM)
MRSA; listed as THAM-3ФG
  change in A260 of culture supernatant (cytoplasmic leakage): significant increase in A260; also recorded: immediate increase in A260
  number of viable cells (CFUs) during the leakage assay: no significant reductions in CFUs

## [H]/N=C(\N/C(=N/[H])NCCCCCCNC(=N)NC(=N)Nc1ccc(Cl)cc1)Nc1ccc(Cl)cc1 [Chlorhexidine, chlorhexidine, reference compound]
S. aureus RN4220
  IC50: 860 ± 210 nM
[1]
  MBC: 0.44 µg/mL (≈ 0.87 µM)
[2]
  MBC: 0.89 µg/mL (≈ 1.76 µM)
[3]
  MIC: 16 µg/mL (≈ 31.7 µM)
[4]
  MIC: 8 µg/mL (≈ 15.8 µM)
[5]; MHB, median
  MIC: 0.44 µg/mL (≈ 0.87 µM)
[5]; [10]
  MIC: 1 µg/mL (≈ 1.98 µM)
[6]
  MIC: 16 µg/mL (≈ 31.7 µM)
[7]
  MIC: 6 µg/mL (≈ 11.9 µM)
[8]
  MIC: 4 µg/mL (≈ 7.91 µM)
[9]; MHB, median
  MIC: 0.89 µg/mL (≈ 1.76 µM)
[9]; [11]
  MIC: 1 µg/mL (≈ 1.98 µM)
MRSA strain LAC, USA300; MRSA USA300, MHB, median
  MIC: 0.67 µg/mL (≈ 1.33 µM)
MRSA strain LAC, USA300; [12]
  MIC: 1 µg/mL (≈ 1.98 µM)
MRSA
  change in A260 of culture supernatant (cytoplasmic leakage): immediate increase in A260
  number of viable cells (CFUs) during the leakage assay: no significant reductions in CFUs
MRSA; listed as chlorhexidine
  change in A260 of culture supernatant (cytoplasmic leakage): significant increase in A260
  number of viable cells (CFUs) during the leakage assay: no significant reduction in CFUs
